Bounds are passed on as bounds.

The subject of assay [1] is Mycobacterium tuberculosis CDC1551 (intracellular, in murine BMDM). The assay can be described thus: area under intracellular growth-inhibition dose-response curve (AUC (% inhibition x dose, relative)); higher = more potent. To be noted: duration: 6 days; dose range: 0.13-80 uM, 8 points. The gist of the method:
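Primary murine bone marrow-derived macrophages in 384-well opaque plates were infected 24 h after seeding with luciferase-expressing M. tuberculosis CDC1551 at multiplicity of infection 1 for 1 h. They were then treated with an 8-dose, 2.5-fold series (final 80–0.13 μM) for 6 days. Growth was read by Bright-Glo luciferin assay and normalised to a reference drug control and the lowest-concentration wells. The value is the area under the growth-inhibition dose–response curve, calculated in GraphPad Prism.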

Assay [2] deals with murine bone marrow-derived macrophages. Briefly: area under cytotoxicity dose-response curve (AUC (% cytotoxicity x dose, relative)); higher = more cytotoxic. To be noted: duration: 6 days; dose range: 0.13-80 uM, 8 points. The gist of the method:
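Using opaque 384-well plates, primary murine bone marrow-derived macrophages were treated for 6 days at 37 °C in 5% CO2 with an 8-point, 2.5-fold dilution series spanning final concentrations of 80–0.13 μM. After CellTiter-Glo (Promega) luminescence readout of viability, percent cytotoxicity was normalised to vehicle and positive control wells. The reported value is the area under the dose–response curve for cytotoxicity, derived in GraphPad Prism version 10.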

Turning to `Cc1ccc(-c2nnc(C)c(N3CCCC3)n2)cc1`, the “area under intracellular growth-inhibition dose-response curve” value in assay [1] was found to be 101. In addition, in assay [2], the “area under cytotoxicity dose-response curve” value is 92.9.
Turning to `O=Cc1c(Nc2cccc(C(F)(F)F)c2)nc2ccccn2c1=O`, the “area under intracellular growth-inhibition dose-response curve” value in assay [1] is 234. In assay [2], the “area under cytotoxicity dose-response curve” value was < 0.
For `CCCC(C)NC(=O)c1ccc(F)cc1` (stereo not drawn), in that order: 248 and 4.45.
For `Brc1ccc(-[n+]2c(-c3ccccc3)cc(-c3ccccc3)cc2-c2ccccc2)cc1.[O-][Cl+3]([O-])([O-])[O-]`, in that order: 70.1 and 14.7.
For `Cc1cc(/C=N/NC(N)=S)c(C)n1-c1ccc(Cl)cc1`, in that order: 220 and 44.8.
As to `CCCc1cc(C(=O)NCc2cccs2)no1`, the “area under intracellular growth-inhibition dose-response curve” value in assay [1] worked out at 192. Further, the “area under cytotoxicity dose-response curve” value in assay [2] was < 0.
The like results for `NC(=S)N/N=C/c1cccc(/C=N/NC(N)=S)c1` were, in that order, 177 and 91.2.
As for `CN(C)S(=O)(=O)c1ccc(C(=O)OCC(=O)NC(=O)NC2CCCC2)cc1`, the “area under intracellular growth-inhibition dose-response curve” value in assay [1] was 165. Besides, in assay [2], the “area under cytotoxicity dose-response curve” value was < 0.
In the case of `CCCCN(C(=O)c1ccco1)c1c(N)n(CCC)c(=O)[nH]c1=O`, in assay [1], the “area under intracellular growth-inhibition dose-response curve” value is < 0. For the same compound, the “area under cytotoxicity dose-response curve” value in assay [2] came to 53.6.
For `Nc1ccc(C(=O)O)c(O)c1`, in that order: 182 and 62.3.
The like results for `NC(=S)N/N=C/c1ccc(-c2cc(Cl)ccc2Cl)o1` were, in that order, 247 and 33.2.
For `COc1ccc(CN(C)C(=O)COC(=O)c2cc([N+](=O)[O-])ccc2N2CCCC2)c(OC)c1OC`, in that order: 31 and 66.2.
For `O=C(Nc1ccc(S(=O)(=O)NC2=NCCCCC2)cc1)c1cccs1`, the “area under intracellular growth-inhibition dose-response curve” value in assay [1] came to 43.4. The “area under cytotoxicity dose-response curve” value in assay [2] was found to be 3.27.
The like results for `O=C(NCCc1ccncc1)Nc1cccc(Cl)c1` were, in that order, 11.9 and 79.9.
For the compound `CC(C)CCNC(=O)c1csc2c1CCCCC2`, the “area under intracellular growth-inhibition dose-response curve” value in assay [1] came to 250. The “area under cytotoxicity dose-response curve” value in assay [2] was 42.8.
The like results for `COc1ccc(NC(=S)Nc2ccc(Oc3ccccc3)cc2)cc1` were, in that order, 233 and < 0.
The like results for `N#Cc1ccc(OCC(=O)N2CCN(S(=O)(=O)c3ccc(Cl)s3)CC2)cc1` were, in that order, 31.9 and 65.3.
For `CC1CCC/C(=N\NC(=O)c2ccncc2)C1` (stereo not drawn), in that order: 186 and 70.8.
On to `O=C(N/N=C/c1cccc2nccnc12)c1ccncc1`, for which the “area under intracellular growth-inhibition dose-response curve” value in assay [1] was 271. In addition, the “area under cytotoxicity dose-response curve” value in assay [2] was 36.1.
In the case of `N#CCc1ccc(NC(=O)/C=C/c2ccc([N+](=O)[O-])o2)cc1`, the “area under intracellular growth-inhibition dose-response curve” value in assay [1] came to 35. Besides, the “area under cytotoxicity dose-response curve” value in assay [2] stood at 124.
For `CCOC(=O)c1ccccc1OCc1cc(/C=N/NC(=O)c2ccncc2)ccc1OC`, in that order: 269 and 20.2.
Consider `C/C(Cn1cnc([N+](=O)[O-])n1)=N/NC(=O)COc1c(Cl)cc(Cl)cc1Cl`, for which the “area under intracellular growth-inhibition dose-response curve” value in assay [1] worked out at 196. Moreover, the “area under cytotoxicity dose-response curve” value in assay [2] was < 0.
As for `O=C(N/N=C/c1coc2ccccc2c1=O)c1ccncc1`, in assay [1], the “area under intracellular growth-inhibition dose-response curve” value is 272. Moreover, the “area under cytotoxicity dose-response curve” value in assay [2] is < 0.
As for `CC(=O)NC(=S)Nc1ccc(NC(=O)c2cccnc2Cl)cc1`, in assay [1], the “area under intracellular growth-inhibition dose-response curve” value is 262. In assay [2], the “area under cytotoxicity dose-response curve” value was < 0.
The like results for `O=C(CC1CCCCC1)NCC1CCCO1` (stereo not drawn) were, in that order, 165 and 25.1.
The like results for `Cc1ccc(C)c(-c2nnc(NC(=O)c3ccc([N+](=O)[O-])o3)o2)c1` were, in that order, 62 and 128.
The like results for `O=S(=O)(Nc1ccc(S(=O)(=O)Nc2nccs2)cc1)c1ccc2c(c1)OCCO2` were, in that order, 77.8 and < 0.
In the case of `CNc1nc(SC)nc2ccsc12`, in assay [1], the “area under intracellular growth-inhibition dose-response curve” value was determined as 221. Further, the “area under cytotoxicity dose-response curve” value in assay [2] stood at 11.7.
As to `Cl.O=C(CCN1CCN(CCO)CC1)N1c2ccccc2Sc2ccc(C(F)(F)F)cc21`, in assay [1], the “area under intracellular growth-inhibition dose-response curve” value amounted to 61.3. Besides, in assay [2], the “area under cytotoxicity dose-response curve” value was found to be 75.
The like results for `O=C(NCCc1ccc(F)cc1)NC12CC3CC(CC(C3)C1)C2` were, in that order, 190 and 60.1.
The like results for `CCc1ccc(OCC(=O)NC(=S)Nc2ccc(C(C)=O)cc2)c(Br)c1` were, in that order, 238 and < 0.
The like results for `CC(C)Oc1cccc(C(=O)N2CCCC2)c1` were, in that order, 43.1 and 54.6.
For `Cc1ccc(C(C)C)c(OCc2n[n+](CC(=O)c3ccc(Cl)cc3)c3n2CCCCC3)c1.[Br-]`, in assay [1], the “area under intracellular growth-inhibition dose-response curve” value is 169. Besides, the “area under cytotoxicity dose-response curve” value in assay [2] is < 0.
The like results for `COc1ccc(C(=O)Oc2cccc(/C=N/NC(N)=S)c2)cc1` were, in that order, 145 and 65.
The like results for `CNC(=S)N/C=N/OCc1c(Cl)cccc1Cl` were, in that order, 83.8 and 86.9.
For `CCCc1cc(C(N)=S)ccn1`, in that order: 215 and 8.35.
In the case of `COc1cc(C(=O)Nc2cc(S(=O)(=O)N3CCOCC3)ccc2N2CCOCC2)ccc1OC(F)F`, the “area under intracellular growth-inhibition dose-response curve” value in assay [1] came out at 44.6. In addition, in assay [2], the “area under cytotoxicity dose-response curve” value is < 0.
For `COc1cc(/C=N/NC(N)=S)ccc1OC(=O)c1ccc(C)cc1`, in that order: 264 and 23.5.
The like results for `COc1ccc2c(c1)c(CC(=O)OCC(=O)O)c(C)n2C(=O)c1ccc(Cl)cc1` were, in that order, 117 and 47.6.
For `Cc1cccc(/C=N/NC(=O)c2ccncc2)n1`, in that order: 269 and 14.
As for `CC1CCCC(C)N1C(=O)COC(=O)c1cccnc1Cl` (stereo not drawn), the “area under intracellular growth-inhibition dose-response curve” value in assay [1] is 33.7. In addition, the “area under cytotoxicity dose-response curve” value in assay [2] came out at 9.13.
Take `NC1=NC(=O)/C(=C/c2ccc(Cl)cc2Cl)S1`: the “area under intracellular growth-inhibition dose-response curve” value in assay [1] worked out at 129. In addition, in assay [2], the “area under cytotoxicity dose-response curve” value is < 0.
For `CCCCC(=O)NCc1ccc(F)cc1`, in that order: 199 and < 0.
For the compound `COc1cccc(CNC(=O)CN2C(=O)NC(Cc3ccccc3)(c3ccccc3)C2=O)c1` (stereo not drawn), in assay [1], the “area under intracellular growth-inhibition dose-response curve” value was found to be 89.4. For the same compound, in assay [2], the “area under cytotoxicity dose-response curve” value turned out to be 1.94.
The like results for `CCN1/C(=C\c2ccc3ccccc3[n+]2CC)Sc2cc(C)ccc21.[I-]` were, in that order, 117 and 175.
For `CCOC(=O)Nc1ccc(C(=O)Oc2ccccc2)c(O)c1`, in that order: 31.9 and 63.8.
For `O=C1/C(=C/c2cccs2)CCC1C1CCCC1` (stereo not drawn), in that order: 132 and < 0.
For the compound `CCOC(=O)c1c(-c2ccccc2)oc2ccc(O)c(CN3CCCC3)c12`, in assay [1], the “area under intracellular growth-inhibition dose-response curve” value amounted to 278. The “area under cytotoxicity dose-response curve” value in assay [2] is < 0.
The like results for `COc1ccccc1C=NNC(=O)c1ccncc1` were, in that order, 266 and 9.
On to `O=[N+]([O-])c1cc(Cl)c(O)c(-[n+]2c(-c3ccccc3)cc(-c3ccccc3)cc2-c2ccccc2)c1.[O-][Cl+3]([O-])([O-])[O-]`, for which the “area under intracellular growth-inhibition dose-response curve” value in assay [1] was determined as 150. Besides, the “area under cytotoxicity dose-response curve” value in assay [2] is 35.3.
The like results for `Cc1ccc(-[n+]2c(-c3ccc(Br)cc3)cn3c2CCc2ccc4cccnc4c2-3)cc1.[Br-]` were, in that order, 96.2 and 29.
The like results for `Cc1ccc(Cc2c(C)c(C#N)c3nc4ccccc4n3c2O)cc1` were, in that order, 240 and 75.7.
The like results for `CCn1c(C)cs/c1=N/C(=O)c1ccccc1` were, in that order, 197 and 25.7.
On to `COc1ccccc1C(CNC(=O)CN1C(=O)NC(C)(c2ccc3ccccc3c2)C1=O)N1CCCC1` (stereo not drawn), for which the “area under intracellular growth-inhibition dose-response curve” value in assay [1] amounted to 93.4. Further, the “area under cytotoxicity dose-response curve” value in assay [2] came to 44.4.

Source of the values: the supplement of paper PMC11997997.
